Measurements as given in publication PMC10740061 (Food Chemistry: X, 2023).
Marks after values point to notes of the source that are not given here.

System: Caco-2 monolayer
Assay: Caco-2 monolayer transmembrane transport, apical to basolateral
Type: in vitro ADME, human
Settings: for PappAtoB: 40 µM flavonoid, 6 h, A to B, mean ± SD (n = 3); for apparent permeability coefficient (in words): comparison among the dietary flavonoids, Table 2
[1] = RD (rice flour digested products) 400 µg/mL
[2] = WD (wheat flour digested products) 400 µg/mL

O=c1cc(-c2ccc(O)cc2)oc2cc(O)cc(O)c12 [Apigenin]
PappAtoB [1]: 3.13 ± 0.01^b × 10^-6 cm/s | Increase in PappAtoB (RD vs no substrate): 0.90 | PappAtoB [2]: 4.18 ± 0.06^c × 10^-6 cm/s | Increase in PappAtoB (WD vs no substrate): 1.54 | apparent permeability coefficient (in words): comparatively poor

O=c1cc(-c2ccccc2)oc2cc(O)c(O)c(O)c12 [Baicalein]
PappAtoB [1]: 2.28 ± 0.01^a × 10^-6 cm/s | change of apparent permeability coefficient (in words) (RD group vs no substrate): decrease in the apparent permeability coefficient | Increase in PappAtoB (RD vs no substrate): −0.21 | PappAtoB [2]: 3.79 ± 0.10^c × 10^-6 cm/s | change of apparent permeability coefficient (in words) (WD group vs no substrate): increase | Increase in PappAtoB (WD vs no substrate): 0.31 | apparent permeability coefficient (in words): comparatively poor

COc1ccc([C@@H]2CC(=O)c3c(O)cc(O)cc3O2)cc1O [Hesperetin]
PappAtoB [1]: 1.98 ± 0.02^a × 10^-6 cm/s | change of apparent permeability coefficient (in words) (RD group vs no substrate): decrease in permeability | Increase in PappAtoB (RD vs no substrate): −0.73 | PappAtoB [2]: 12.18 ± 0.53^c × 10^-6 cm/s | Increase in PappAtoB (WD vs no substrate): 0.67

O=C1c2c(O)cc(O)cc2OC(c2ccc(O)c(O)c2)C1O (stereo not shown) [Taxifolin]
PappAtoB [1]: 15.66 ± 0.09^a × 10^-6 cm/s | Increase in PappAtoB (RD vs no substrate): −0.37 | PappAtoB [2]: 17.71 ± 0.43^b × 10^-6 cm/s | Increase in PappAtoB (WD vs no substrate): −0.29 | apparent permeability coefficient (in words): notably higher apparent permeability coefficients

O=c1c(O)c(-c2ccc(O)c(O)c2)oc2cc(O)cc(O)c12 [Quercetin]
PappAtoB [1]: 6.54 ± 0.03^a × 10^-6 cm/s | Increase in PappAtoB (RD vs no substrate): −0.29 | Increase in PappAtoB (WD vs no substrate): 0.18

O=c1c(-c2ccc(O)cc2)coc2cc(O)cc(O)c12 [Genistein]
PappAtoB [1]: 14.45 ± 0.09^b × 10^-6 cm/s | Increase in PappAtoB (RD vs no substrate): 0.21 | PappAtoB [2]: 22.89 ± 0.09^c × 10^-6 cm/s | Increase in PappAtoB (WD vs no substrate): 0.92

Oc1cc(O)c2c(c1)O[C@H](c1ccc(O)c(O)c1)[C@H](O)C2 [(-)-Epicatechin]
PappAtoB [1]: 37.30 ± 0.04^c × 10^-6 cm/s | Increase in PappAtoB (RD vs no substrate): 0.62 | PappAtoB [2]: 27.24 ± 0.45^b × 10^-6 cm/s | Increase in PappAtoB (WD vs no substrate): 0.18 | apparent permeability coefficient (in words): notably higher apparent permeability coefficients

O=c1cc(-c2ccc(O)cc2)oc2c([C@@H]3O[C@H](CO)[C@@H](O)[C@H](O)[C@H]3O)c(O)cc(O)c12 [Vitexin]
PappAtoB [1]: 25.87 ± 0.04^b × 10^-6 cm/s | Increase in PappAtoB (RD vs no substrate): −0.09 | PappAtoB [2]: 15.54 ± 0.46^a × 10^-6 cm/s | Increase in PappAtoB (WD vs no substrate): −0.46 | apparent permeability coefficient (in words): highest apparent permeability coefficient

COc1ccc(-c2coc3cc(O)ccc3c2=O)cc1 [Formononetin]
PappAtoB [1]: 12.01 ± 0.01^a × 10^-6 cm/s | change of apparent permeability coefficient (in words) (RD group vs no substrate): decrease in permeability | Increase in PappAtoB (RD vs no substrate): −0.49 | PappAtoB [2]: 22.68 ± 0.95^b × 10^-6 cm/s | Increase in PappAtoB (WD vs no substrate): −0.05 | apparent permeability coefficient (in words): notably higher apparent permeability coefficients

COc1cc(-c2oc3cc(O)cc(O)c3c(=O)c2O[C@@H]2O[C@H](CO[C@@H]3O[C@@H](C)[C@H](O)[C@@H](O)[C@H]3O)[C@@H](O)[C@H](O)[C@H]2O)ccc1O [Isorhamnetin-3-O-rutinoside]
PappAtoB (No substrate): 7.78 ± 0.05^b × 10^-6 cm/s | PappAtoB [1]: 5.40 ± 0.09^a × 10^-6 cm/s | Increase in PappAtoB (RD vs no substrate): −0.31 | PappAtoB [2]: 11.68 ± 0.07^c × 10^-6 cm/s | Increase in PappAtoB (WD vs no substrate): 0.50

O=c1c(O)c(-c2ccccc2)oc2cc(O)cc(O)c12 [Galangin]
PappAtoB [1]: 8.76 ± 0.01^b × 10^-6 cm/s | Increase in PappAtoB (RD vs no substrate): 0.28 | PappAtoB [2]: 12.01 ± 0.49^c × 10^-6 cm/s | Increase in PappAtoB (WD vs no substrate): 0.75

O=C1C[C@@H](c2ccc(O)cc2)Oc2cc(O)cc(O)c21 [Naringenin]
PappAtoB [1]: 5.43 ± 0.06^a × 10^-6 cm/s | Increase in PappAtoB (RD vs no substrate): −0.57 | PappAtoB [2]: 11.15 ± 1.54^b × 10^-6 cm/s | Increase in PappAtoB (WD vs no substrate): −0.12 | apparent permeability coefficient (in words): notably higher apparent permeability coefficients

COc1cc(-c2oc3cc(O)cc(O)c3c(=O)c2O)ccc1O [Isorhamnetin]
PappAtoB [1]: 6.64 ± 0.03^a × 10^-6 cm/s | Increase in PappAtoB (RD vs no substrate): −0.29 | PappAtoB [2]: 11.42 ± 0.91^c × 10^-6 cm/s | Increase in PappAtoB (WD vs no substrate): 0.23

O=C1c2c(O)cc(O)cc2O[C@H](c2cc(O)c(O)c(O)c2)[C@H]1O [Dihydromyricetin]
PappAtoB [1]: 16.38 ± 0.03^b × 10^-6 cm/s | Increase in PappAtoB (RD vs no substrate): −0.05 | PappAtoB [2]: 14.82 ± 0.15^a × 10^-6 cm/s | Increase in PappAtoB (WD vs no substrate): −0.14 | apparent permeability coefficient (in words): notably higher apparent permeability coefficients

OC[C@H]1O[C@@H](Oc2cc3c(O)cc(O)cc3[o+]c2-c2ccc(O)c(O)c2)[C@H](O)[C@@H](O)[C@@H]1O [Cyanidin-3-O-glucoside]
PappAtoB (No substrate): 7.96 ± 0.08^a × 10^-6 cm/s | PappAtoB [1]: 7.85 ± 0.07^a × 10^-6 cm/s | Increase in PappAtoB (RD vs no substrate): −0.01 | PappAtoB [2]: 7.97 ± 0.06^a × 10^-6 cm/s | Increase in PappAtoB (WD vs no substrate): 0.00

O=c1c(O)c(-c2ccc(O)cc2)oc2cc(O[C@@H]3O[C@H](CO)[C@@H](O)[C@H](O)[C@H]3O)cc(O)c12 [Kaempferol-7-O-β-glucoside]
PappAtoB (No substrate): 0.64 ± 0.05^a × 10^-6 cm/s | PappAtoB [1]: 1.26 ± 0.02^b × 10^-6 cm/s | Increase in PappAtoB (RD vs no substrate): 0.96 | PappAtoB [2]: 3.67 ± 0.15^c × 10^-6 cm/s | Increase in PappAtoB (WD vs no substrate): 4.71 | apparent permeability coefficient (in words): comparatively poor

Oc1cc(O)c2c(c1)O[C@H](c1ccc(O)c(O)c1)[C@@H](O)C2 [(+)-Catechin]
PappAtoB (No substrate): 11.22 ± 0.06^a × 10^-6 cm/s | PappAtoB [1]: 18.75 ± 0.09^b × 10^-6 cm/s | Increase in PappAtoB (RD vs no substrate): 0.67 | Increase in PappAtoB (WD vs no substrate): −0.04 | apparent permeability coefficient (in words): notably higher apparent permeability coefficients

C[C@@H]1O[C@@H](Oc2c(-c3ccc(O)c(O)c3)oc3cc(O)cc(O)c3c2=O)[C@H](O)[C@H](O)[C@H]1O [Quercitrin]
PappAtoB [1]: 1.47 ± 0.05^a × 10^-6 cm/s | Increase in PappAtoB (RD vs no substrate): −0.73 | PappAtoB [2]: 9.61 ± 0.28^c × 10^-6 cm/s | Increase in PappAtoB (WD vs no substrate): 0.72

O=c1cc(-c2ccc(O)cc2)oc2cc(O[C@@H]3O[C@H](CO)[C@@H](O)[C@H](O)[C@H]3O)cc(O)c12 [Apigenin-7-O-glucoside]
PappAtoB [1]: 6.37 ± 0.02^a × 10^-6 cm/s | Increase in PappAtoB (RD vs no substrate): 0.11 | PappAtoB [2]: 11.24 ± 0.64^b × 10^-6 cm/s | Increase in PappAtoB (WD vs no substrate): 0.95

C[C@@H]1O[C@@H](O[C@H]2[C@H](Oc3cc(O)c4c(c3)O[C@H](c3ccc(O)cc3)CC4=O)O[C@H](CO)[C@@H](O)[C@@H]2O)[C@H](O)[C@H](O)[C@H]1O [Naringin]
PappAtoB [1]: 1.80 ± 0.01^b × 10^-6 cm/s | Increase in PappAtoB (RD vs no substrate): 0.34 | PappAtoB [2]: 2.38 ± 0.09^c × 10^-6 cm/s | Increase in PappAtoB (WD vs no substrate): 0.77

O=c1c(O)c(-c2cc(O)c(O)c(O)c2)oc2cc(O)cc(O)c12 [Myricetin]
PappAtoB [1]: 9.07 ± 0.01^b × 10^-6 cm/s | Increase in PappAtoB (RD vs no substrate): 0.63 | PappAtoB [2]: 17.79 ± 0.03^c × 10^-6 cm/s | Increase in PappAtoB (WD vs no substrate): 2.21
